# The source made the active and inactive calls. No cut-off for these calls is given here.
# Tests used:
# Format in all cases: functional, cell-based
# LoVo = assay: Cytotoxicity against human LoVo cells at 2 ug/ml
# L1210 = assay: Cytotoxicity against mouse L1210 cells by agar disk diffusion assay
# KB = assay: Cytotoxicity against human KB cells at 2 ug/ml
compound,measurement,setting,value
CC(C)[C@@H]1NC(=O)[C@H]2N=C(O[C@@H]2C)[C@H](C(C)C)NC(=O)[C@H]2N=C(O[C@@H]2C)[C@H](C(C)C)NC(=O)[C@H]2N=C1O[C@@H]2C,Activity,LoVo,Active
same,Activity,L1210,inactive
same,Activity,KB,Active

# — ChEMBL document CHEMBL1159002, “Westiellamide, a bistratamide-related cyclic peptide from the blue-green alga Westiellopsis prolifica” (J Nat Prod, 1992)
